In a melting point compilation (Tetko et al.; mined from patent text by program, amines drawn as free bases though some values may be those of a salt):
Non-standard residues stand in square brackets, D forms with d. Residues, ends and D or L forms follow the SMILES beside them. ξ: configuration not given here. *: point of attachment. ξPhe(4-F) = NC(Cc1ccc(F)cc1)C(=O)O; Boc = CC(C)(C)OC(=O)*

Row | Structure (SMILES) | melting point
1 | COC(=O)c1ccc([N+](=O)[O-])cc1S(=O)(=O)Cl | 86 to 88 °C
2 | CCCCCCCCCCCC(=O)Oc1ccc2nc(S(N)(=O)=O)sc2c1 | 112 to 114 °C
3 | COc1cc2[nH]c(=O)c3c(c2cc1OC)CCN(CCN(C)C)C3 | 160 to 164 °C
4 | CCc1nc(Br)c(Br)[nH]1 | 149 to 150 °C
5 | CCNC(=O)C(Cc1ccc(F)cc1)NC(=O)CNC(=O)OC(C)(C)C (stereo not drawn) (Boc-Gly-[ξPhe(4-F)]-NHEt) | 181 to 182 °C
6 | COc1c(C)c(N)c2c(c1C)C(c1ccc(C(C)C)cc1)C(C)(C)O2 (stereo unspecified) | 111 to 112 °C
7 | CCCCCCCCCCCCCCCCCCOC(=O)c1ccc(CBr)cc1 | 53 to 55 °C
8 | COc1cc(Nc2nc3cccc(-c4ccc(N)cc4)c3o2)cc(OC)c1OC | 192 to 196 °C
9 | CSc1c(C)nc(C(C)C)nc1O | 156 °C
10 | CSCc1nnc(-c2ccc3occ(-c4cccc(OC(F)(F)F)c4)c3c2)o1 | 84 to 85 °C
11 | CCOC(=O)c1ccc2[nH]cc(CCNC(=O)OC(C)(C)C)c2c1 | 170 to 171 °C
12 | COc1ccc(-c2ccc(CCC#N)cc2)cc1 | 105 to 107 °C
13 | COCc1noc(-c2ncn3c2CN(C)C(=O)c2c(Cl)cccc2-3)n1 | 213 to 215 °C
14 | CS(=O)(=O)Nc1c(C(=O)c2cccc(Cl)c2)[nH]c2ccc(Cl)cc12 | 220 to 221 °C
15 | Cc1cc(-c2ccc(C#N)cc2)cn2cc(-c3ccc(C#N)cc3)nc12 | 283 to 285 °C
16 | Cc1cc(N)cc(C)c1Oc1ccc(O)c(C(=O)c2ccc(F)cc2)c1 | 198 to 202 °C
17 | COC(=O)c1ccc(C#CC(C)(O)c2ccc3c(c2)C(C)(C)CCC3(C)C)cc1O (stereo unspecified) | 110 to 115 °C

Row | Structure (SMILES) | melting point
18 | COC(=O)[C@H](O)[C@@H](N)c1ccc(F)cc1 | 105 °C
19 | O=[N+]([O-])c1ccc(Oc2ccc(C(F)(F)F)cn2)cc1NCP(=O)(O)O | 94 °C
20 | CCOC(=O)C(=CNC1CC1)C(=O)c1cc(F)c(F)c(F)c1F | 63 to 65 °C
21 | O=C(NC1Cc2ccc(-c3ccc(F)cc3)cc2C1)c1ccc(F)cc1 (stereo unspecified) | 193 °C
22 | CCCc1ccc(Br)nn1 | 35 to 36 °C
23 | C=CCOc1ccc(C[C@H](N)C(=O)NC(=O)OC(C)(C)C)cc1 | 145 °C
24 | ON1Cc2ccccc2C1=S | 110 to 111 °C
25 | CCc1ccc2cc[nH]c2n1 | 117 to 120 °C
26 | Cc1cn(-c2ccc3nnc4c(C)nc(CC(C)C)n4c3c2)c(CC(C)C)n1 | 134 to 136 °C
27 | Nc1nc(N)nc(-c2ccc(NS(=O)(=O)c3cc(Cl)ccc3Cl)cc2)n1 | 230 to 233 °C
28 | O[C@@H]1CCc2ccc(F)cc2C1 | 59 to 61 °C
29 | CCC(=O)CCc1ccc(OC)c(S(N)(=O)=O)c1 | 135 to 138 °C
30 | C[Si](C)(C)OC1(C#N)CCOc2ccc(Cl)cc21 (stereo unspecified) | 72 to 73 °C
31 | CCc1cn(C)cc(-c2ccc(Cl)c(C(F)(F)F)c2)c1=O | 121 to 123 °C
32 | Cc1cc(C(=O)NCO)ncc1C(c1c(F)ccc(F)c1F)S(=O)(=O)CCC(C)(F)F (stereo unspecified) | 161 to 162 °C
33 | CC1(C)CCC(C)(C)c2nc(C(=O)CBr)cnc21 | > 300 °C

Next, values leading:

Row | melting point | Structure (SMILES)
34 | > 300 °C | Cc1nc2c(O)nc3ccccc3c2n1C
35 | 120 to 121 °C | CCOC(=O)c1cn(Cc2ccccc2)nc1OCc1ccc(OCc2nc(-c3ccco3)oc2C)c(OCOC)c1
36 | 158 °C | COc1cc2c(cc1OC)CN(CCCOc1ccc(NC(=O)c3nc4cc(C)c(C)cc4nc3OC)cc1)CC2
37 | 198 to 200 °C | COc1ccccc1NC(=O)C1=C(O)c2ccc3ccccc3c2S(=O)(=O)N1C
38 | 117 to 120 °C | CN1C(=O)N(CCC(NS(=O)(=O)c2ccc(-c3ccc(Cl)cc3)cc2)C(=O)NO)C(=O)C1(C)C (stereo unspecified)
39 | 187 to 190 °C | Cc1nc2n(c1CO)-c1ccccc1N(C)c1ccccc1-2
40 | 92 to 93 °C | NCCCCOc1cccc(CN2CCCCC2)c1
41 | 251 to 260 °C | O=[N+]([O-])c1ccc2c(c1)ncn2-c1cccc(-c2nccs2)c1
42 | 53 to 55 °C | CCCCc1ccc(CC(=O)c2ccccc2)cc1
43 | 160 °C | COc1ccc(N2CCN(c3ccc([N+](=O)[O-])cc3)CC2)nc1
44 | 196 to 198 °C | COc1ccc(C)cc1NC(=O)Nc1ccc2c(c1)CCN(C(=O)Oc1ccc(C(=O)O)cc1Cl)C2
45 | 151 to 156 °C | COc1ccc(CN2C(=O)c3c(-c4ccccc4Cl)cc4c(c3C2=O)c2cc(OC)ccc2n4CC(O)CO)c(OC)c1 (stereo unspecified)
46 | 185 to 187 °C | COc1ccc2c(c1)CCc1c(cccc1C(=O)O)S2
47 | 190 to 192 °C | Nc1c2c(nc3ccccc13)-c1ccccc1CCC2
48 | 95 to 100 °C | CCN(CC)C1CCCCC1Oc1ccc(Cc2c(-c3ccc(OCCN4CCCC4)cc3)sc3cc(O)ccc23)cc1 (stereo unspecified)
49 | 113 to 115 °C | COC(=O)C1=C(c2ccccc2)C(c2ccccc2)OC1=O (stereo unspecified)
50 | 135 to 139 °C | O=C1c2cc(OCCCl)ccc2-c2ccc(OCCCl)cc21
51 | 171 to 173 °C | COC(=O)CCCC(=O)Nc1ccc(-c2ccc(C#N)cc2)cc1
52 | 61 to 63 °C | CCOC(=O)CNc1ccc(OCC(=O)OCC)c(NC(=O)c2ccc(OCCCCc3ccccc3)cc2)c1

Row | melting point | Structure (SMILES)
53 | 108 to 109 °C | O=C(Oc1ccc(Cl)cc1)C1CCCc2ccc([N+](=O)[O-])cc21 (stereo unspecified)
54 | 158 to 160 °C | Cc1nc2c(C=Cc3ccccc3)cccn2c1N=O
55 | 177 to 179 °C | Cc1cc(CC(=O)O)cc2c1[nH]c1ccccc12
56 | 163 to 165 °C | Cc1c(=O)n(Cc2ccc(C(=O)OC(C)(C)C)cc2)c(=O)n2ccsc12
57 | 191 to 193 °C | C1=C(/C=C/c2ccccc2)CCN(Cc2c[nH]c3ccccc23)C1
58 | 100 to 101 °C | C=CCOc1ccc(-c2cc(=O)c3c(O)cc(OCOC)cc3o2)cc1
59 | > 300 °C | O=C(Nc1nc(-c2ccco2)c(C(=O)c2ccncn2)s1)c1ccncc1
60 | 178 to 179 °C | COc1cc2c(cc1OC)S(=O)c1ccc(Cl)cc1C(N1CCN(C)CC1)C2 (stereo unspecified)
61 | 104 to 107 °C | Cn1nc(-c2ccccc2F)nc1-c1ccccc1C(F)(F)F
62 | 148 to 149 °C | Cc1c(-c2ccc(Cl)cc2)c2cc(OC(C)(C)C(=O)O)ccc2n1C
63 | 101 to 103 °C | COc1ccc(CN2CCc3c(c(=O)oc4cc(OC)ccc34)C2)cc1
64 | 147 to 149 °C | N#Cc1cnn2c1N(C(=O)CN1CCN(C(=O)Nc3cccc(C(F)(F)F)c3)CC1)CC=C2c1cccc(C(F)(F)F)c1
65 | 214 to 215 °C | COc1ccnc(-c2nc(=O)c3ccccc3s2)c1
66 | 137 to 139 °C | Cn1nc(NC(=O)Nc2ccccc2)nc1NCCCOc1cccc(CN2CCCCC2)c1
67 | 256 to 258 °C | Cc1[nH]c(C(=O)NCCC(=O)O)c(C)c1-c1nc2ccc(C(=O)c3ccccc3)cc2[nH]1
68 | 175 to 176 °C | Cc1oc(-c2ccccc2)nc1CC=Cc1ccc(CCC2OC(=O)NC2=O)cc1 (stereo unspecified)
69 | 146 to 148 °C | COc1cc2[nH]c(N(C)Cc3cccc(OCCO)c3)nc(=O)c2c(OC)c1OC
70 | 80.5 to 81.5 °C | O=C(OCc1ccccc1)c1ccc(Br)c(OCc2ccccc2)c1
71 | 122 to 123 °C | CCOC(=O)c1ccc(NCCOc2ccc(F)cc2)cc1
